Results taken from ChEMBL document CHEMBL6182884, “Synthesis and structure-activity evaluation of a series of novel tricyclic STING activators” (Eur J Med Chem, 2025).

Biological target: Stimulator of interferon genes protein (Homo sapiens, UniProt Q86WV6)
Experiment: Activation of human STING R232 variant transfected in HEK293T cells expressing ISRE.ISG54 luciferase reporter assessed as secretory reporter gene activity by measuring luciferase level incubated for 20 hrs by luminometer
Format: cell-based

Sequence of Stimulator of interferon genes protein (Q86WV6 whole entry, looked up): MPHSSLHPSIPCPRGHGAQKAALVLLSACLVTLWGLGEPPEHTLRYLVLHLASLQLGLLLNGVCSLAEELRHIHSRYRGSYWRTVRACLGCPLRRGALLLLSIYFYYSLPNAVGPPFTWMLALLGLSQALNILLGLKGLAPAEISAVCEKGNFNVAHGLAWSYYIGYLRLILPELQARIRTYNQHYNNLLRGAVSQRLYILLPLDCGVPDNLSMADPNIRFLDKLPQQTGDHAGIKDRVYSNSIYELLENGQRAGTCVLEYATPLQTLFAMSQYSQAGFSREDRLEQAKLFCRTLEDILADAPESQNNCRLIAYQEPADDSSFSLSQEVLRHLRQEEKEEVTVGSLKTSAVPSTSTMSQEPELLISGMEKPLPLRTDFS

Compared with `C[C@H]1Sc2ccc(C(=O)NCc3cc4cc(F)ccc4o3)cc2-n2c(-c3ccc(F)cc3)nnc21`, `C[C@@H]1Sc2ccc(C(=O)NCc3cc4cc(F)ccc4o3)cc2-n2c(-c3ccc(F)cc3)nnc21` is 27-fold lower in EC50: 1090 nM for the first, 40 nM for the second.

Going from `CC1Sc2ccc(C(=O)NCc3c(F)cc(F)cc3F)cc2-n2c(-c3ccccc3F)nnc21` (racemic) to `CC1Sc2ccc(C(=O)NCc3c(F)cc(F)cc3F)cc2-n2c(-c3ccc(Cl)cc3F)nnc21` (racemic), the EC50 rises from 804 nM to 1970 nM (2.5-fold).

`CC1Sc2ccc(C(=O)NCc3cc4cc(F)c(F)cc4o3)cc2-n2c(-c3ccc(F)cc3)nnc21` (racemic) and `CC1Sc2ccc(C(=O)NCc3cc4cc(F)ccc4o3)cc2-n2c(-c3ccc(F)cc3)nnc21` (racemic) are within 1.5-fold of each other in EC50: 45 nM for the first, 48 nM for the second.

First: CC1Sc2ccc(C(=O)NCc3c(F)cc(F)cc3F)cc2-n2c(-c3cccc(F)c3)nnc21 (racemic)
Second: Cc1cccc(-c2nnc3n2-c2cc(C(=O)NCc4c(F)cc(F)cc4F)ccc2SC3C)c1 (racemic)
The EC50 of the first is 1.8-fold higher: 2880 nM for the first, 1560 nM for the second. The second is the more potent here.

First: CC1Sc2ccc(C(=O)NCc3c(F)cc(F)cc3F)cc2-n2c(-c3ccncc3)nnc21 (racemic)
Second: Cc1ccc(-c2nnc3n2-c2cc(C(=O)NCc4c(F)cc(F)cc4F)ccc2SC3C)cc1 (racemic)
The EC50 of the first is 2.3-fold lower: 1630 nM for the first, 3810 nM for the second. The first is the more potent here.

Compared with `CC1Sc2ncc(C(=O)NCc3cc4cc(F)ccc4o3)cc2-n2c(-c3ccc(F)cc3)nnc21` (racemic), `CC1Sc2ccc(C(=O)NCc3cc4ccc(F)cc4o3)cc2-n2c(-c3ccc(F)cc3)nnc21` (racemic) is 1.7-fold lower in EC50: 111 nM for the first, 65 nM for the second. The second is the more potent here.

First: CC1Sc2ccc(C(=O)NCc3cc4cc(F)ccc4o3)cc2-n2c(-c3ccc(F)cc3F)nnc21 (racemic)
Second: CC1Sc2ccc(C(=O)NCc3c(F)cc(F)cc3F)cc2-n2c(-c3ccc(F)cc3)nnc21 (racemic)
The EC50 of the first is 7-fold lower: 53 nM for the first, 373 nM for the second.

First: CC1Sc2ncc(C(=O)NCc3cc4ccccc4o3)cc2-n2c(-c3ccccc3)nnc21 (racemic)
Second: O=C(NCc1c(F)cc(F)cc1F)c1ccc2c(c1)-n1c(nnc1-c1ccccc1)CS2
The EC50 of the first is 5-fold lower: 414 nM for the first, 2080 nM for the second. The first is the more potent here.

For `CC1Sc2ccc(C(=O)NCc3c(F)cc(F)cc3F)cc2-n2c(Cc3ccccc3)nnc21` (racemic), the EC50 was 1540 nM.
